Laboratory results published in ChEMBL document CHEMBL5291721, “A preclinical secondary pharmacology resource illuminates target-adverse drug reaction associations of marketed drugs” (Nat Commun, 2023).

What was measured:
[1] = biological target: T1, 5-hydroxytryptamine receptor 2A (Homo sapiens, UniProt P28223); type: functional, cell-based
[2] = biological target: T2, Muscarinic acetylcholine receptor M1 (Homo sapiens, UniProt P11229); type: functional
T2 sequence (P11229 whole entry): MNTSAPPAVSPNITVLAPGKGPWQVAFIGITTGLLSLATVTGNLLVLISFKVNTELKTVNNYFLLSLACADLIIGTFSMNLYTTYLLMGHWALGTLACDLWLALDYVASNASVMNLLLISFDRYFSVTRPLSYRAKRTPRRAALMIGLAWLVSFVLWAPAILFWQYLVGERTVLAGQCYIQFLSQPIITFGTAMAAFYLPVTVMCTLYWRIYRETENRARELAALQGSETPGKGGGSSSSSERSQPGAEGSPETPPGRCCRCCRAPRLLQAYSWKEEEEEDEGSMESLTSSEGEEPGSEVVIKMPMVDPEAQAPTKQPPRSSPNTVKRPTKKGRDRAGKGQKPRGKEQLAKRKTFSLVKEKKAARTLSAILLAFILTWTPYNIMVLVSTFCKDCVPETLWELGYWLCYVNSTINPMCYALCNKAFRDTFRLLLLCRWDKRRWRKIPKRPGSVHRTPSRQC

[3] = biological target: Muscarinic acetylcholine receptor M3 (Homo sapiens, UniProt P20309)
Chain of Muscarinic acetylcholine receptor M3 (P20309 whole entry): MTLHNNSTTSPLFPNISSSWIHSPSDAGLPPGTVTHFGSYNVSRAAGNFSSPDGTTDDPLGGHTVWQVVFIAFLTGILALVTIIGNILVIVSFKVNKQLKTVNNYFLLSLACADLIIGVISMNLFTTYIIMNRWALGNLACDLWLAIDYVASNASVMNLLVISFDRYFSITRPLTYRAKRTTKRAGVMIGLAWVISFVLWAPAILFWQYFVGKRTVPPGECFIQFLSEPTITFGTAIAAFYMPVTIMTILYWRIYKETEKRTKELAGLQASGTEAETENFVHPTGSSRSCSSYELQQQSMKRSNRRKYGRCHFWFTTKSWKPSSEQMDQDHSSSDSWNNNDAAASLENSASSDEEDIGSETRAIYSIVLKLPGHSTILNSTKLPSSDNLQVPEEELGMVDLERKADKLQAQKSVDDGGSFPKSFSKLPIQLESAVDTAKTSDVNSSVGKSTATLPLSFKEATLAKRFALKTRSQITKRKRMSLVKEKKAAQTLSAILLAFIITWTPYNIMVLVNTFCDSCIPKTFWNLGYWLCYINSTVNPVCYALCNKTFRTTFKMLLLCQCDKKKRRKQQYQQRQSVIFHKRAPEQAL

[4] = biological target: T1, 5-hydroxytryptamine receptor 2A; type: functional, cell-based; remark: listed apart in the source
Motilin receptor = Motilin receptor (Homo sapiens, UniProt O43193)
Chain of Motilin receptor (O43193 whole entry): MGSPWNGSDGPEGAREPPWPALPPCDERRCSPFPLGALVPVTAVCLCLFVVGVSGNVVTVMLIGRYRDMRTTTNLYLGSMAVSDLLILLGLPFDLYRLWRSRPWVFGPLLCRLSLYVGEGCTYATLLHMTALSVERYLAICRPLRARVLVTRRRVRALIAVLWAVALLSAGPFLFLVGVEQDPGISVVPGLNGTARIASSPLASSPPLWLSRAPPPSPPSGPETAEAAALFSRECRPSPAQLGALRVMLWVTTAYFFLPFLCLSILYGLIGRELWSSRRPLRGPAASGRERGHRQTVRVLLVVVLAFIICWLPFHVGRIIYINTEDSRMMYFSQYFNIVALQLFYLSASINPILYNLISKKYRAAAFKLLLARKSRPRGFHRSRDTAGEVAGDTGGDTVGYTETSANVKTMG

[5] = biological target: Sodium-dependent noradrenaline transporter (Homo sapiens, UniProt P23975)
Chain of Sodium-dependent noradrenaline transporter (P23975 whole entry): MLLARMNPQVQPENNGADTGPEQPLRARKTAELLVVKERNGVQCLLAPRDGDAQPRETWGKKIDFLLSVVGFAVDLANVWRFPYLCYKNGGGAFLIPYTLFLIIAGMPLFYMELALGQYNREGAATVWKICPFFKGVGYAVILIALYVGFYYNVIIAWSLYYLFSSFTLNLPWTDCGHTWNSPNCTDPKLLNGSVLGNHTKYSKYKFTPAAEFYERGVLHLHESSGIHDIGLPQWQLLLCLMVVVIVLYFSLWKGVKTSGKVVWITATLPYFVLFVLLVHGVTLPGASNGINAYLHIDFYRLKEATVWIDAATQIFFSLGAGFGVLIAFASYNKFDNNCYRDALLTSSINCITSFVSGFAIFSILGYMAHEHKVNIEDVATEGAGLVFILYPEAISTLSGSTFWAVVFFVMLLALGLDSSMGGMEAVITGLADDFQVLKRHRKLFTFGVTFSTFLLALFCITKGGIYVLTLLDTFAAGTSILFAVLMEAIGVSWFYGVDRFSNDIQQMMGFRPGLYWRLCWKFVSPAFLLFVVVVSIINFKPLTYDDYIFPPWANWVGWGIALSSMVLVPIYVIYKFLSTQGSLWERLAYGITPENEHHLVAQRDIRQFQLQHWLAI

[6] = biological target: Beta-2 adrenergic receptor (Homo sapiens, UniProt P07550); type: functional, cell-based
Chain of Beta-2 adrenergic receptor (P07550 whole entry): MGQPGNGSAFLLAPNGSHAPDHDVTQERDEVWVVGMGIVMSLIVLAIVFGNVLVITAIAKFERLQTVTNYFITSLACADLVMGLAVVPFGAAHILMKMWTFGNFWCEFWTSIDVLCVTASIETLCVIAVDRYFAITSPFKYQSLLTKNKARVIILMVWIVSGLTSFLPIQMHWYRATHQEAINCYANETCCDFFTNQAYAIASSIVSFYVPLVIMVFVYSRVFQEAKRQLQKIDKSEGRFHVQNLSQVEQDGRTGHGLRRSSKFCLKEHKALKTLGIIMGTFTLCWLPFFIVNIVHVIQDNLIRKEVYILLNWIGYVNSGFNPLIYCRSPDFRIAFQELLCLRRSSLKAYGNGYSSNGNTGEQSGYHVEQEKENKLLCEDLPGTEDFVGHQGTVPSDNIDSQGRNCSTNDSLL

[7] = biological target: T3, Muscarinic acetylcholine receptor M2 (Homo sapiens, UniProt P08172); type: functional, cell-based
T3 sequence (P08172 whole entry): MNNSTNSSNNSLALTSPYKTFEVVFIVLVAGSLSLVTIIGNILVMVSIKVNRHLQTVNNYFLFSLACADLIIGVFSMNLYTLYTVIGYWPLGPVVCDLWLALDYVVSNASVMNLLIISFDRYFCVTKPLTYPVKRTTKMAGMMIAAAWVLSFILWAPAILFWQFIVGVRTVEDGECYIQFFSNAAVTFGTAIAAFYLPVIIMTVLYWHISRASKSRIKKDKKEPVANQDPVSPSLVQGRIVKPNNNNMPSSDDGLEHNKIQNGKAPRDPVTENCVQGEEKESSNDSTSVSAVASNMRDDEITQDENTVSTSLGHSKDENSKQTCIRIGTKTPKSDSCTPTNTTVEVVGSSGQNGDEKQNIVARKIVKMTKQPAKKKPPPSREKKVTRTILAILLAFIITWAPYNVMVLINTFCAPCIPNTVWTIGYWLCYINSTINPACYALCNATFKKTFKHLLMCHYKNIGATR
Also: assay procedure not described here.

T1 sequence (P28223 whole entry): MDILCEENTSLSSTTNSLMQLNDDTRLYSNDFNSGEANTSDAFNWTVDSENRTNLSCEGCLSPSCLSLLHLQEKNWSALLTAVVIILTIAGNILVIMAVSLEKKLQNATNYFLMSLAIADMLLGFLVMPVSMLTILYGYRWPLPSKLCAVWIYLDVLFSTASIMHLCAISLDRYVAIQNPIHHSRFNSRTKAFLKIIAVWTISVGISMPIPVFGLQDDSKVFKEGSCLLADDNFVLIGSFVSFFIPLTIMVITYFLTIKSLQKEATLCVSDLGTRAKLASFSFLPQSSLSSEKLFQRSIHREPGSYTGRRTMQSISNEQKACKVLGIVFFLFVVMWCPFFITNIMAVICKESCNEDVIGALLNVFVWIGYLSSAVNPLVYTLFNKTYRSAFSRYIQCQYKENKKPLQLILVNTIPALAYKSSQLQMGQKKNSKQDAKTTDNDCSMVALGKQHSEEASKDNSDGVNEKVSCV

Row | SMILES | AC50 [1] [µM] | AC50 [2] [µM] | AC50 [3] [µM] | AC50 [4] [µM] | AC50 (Motilin receptor) [µM] | AC50 [5] [µM] | AC50 [6] [µM] | AC50 [7] [µM]
1 | C[N+]1(C)CCC(=C(c2ccccc2)c2ccccc2)CC1 | > 10 | 0.41 | 0.19 | 19 | > 30 | – | – | –
2 | Cc1cc2c(cc1S(N)(=O)=O)S(=O)(=O)CCC2 | – | – | – | – | – | > 30 | – | –
3 | C[N+](C)(C)CCOP(=O)([O-])OC[C@H](O)CO | – | – | – | – | > 30 | – | > 30 | > 30
4 | CN(C)Cc1nnc2n1-c1ccc(Cl)cc1C(c1ccccc1)=NC2 [ADINAZOLAM] | – | > 10 | – | – | > 10 | – | – | > 10
5 | CN(C)C/C=C/C(=O)Nc1cc2c(Nc3ccc(F)c(Cl)c3)ncnc2cc1O[C@H]1CCOC1 [AFATINIB] | > 30 | > 30 | > 30 | > 30 | > 30 | – | > 30 | 23
6 | Cc1ccccc1-n1c(CF)nc2ccc(N)cc2c1=O [AFLOQUALONE] | > 10 | > 10 | > 30 | > 10 | > 30 | – | – | > 10
7 | CCC1(c2ccc(N)cc2)CCC(=O)NC1=O (stereo not given) [AMINOGLUTETHIMIDE] | – | – | – | – | > 30 | – | > 30 | > 30
8 | CC1=C(C(=O)OC(C)C)C(c2cccc([N+](=O)[O-])c2)C(C(=O)OC2CN(C(c3ccccc3)c3ccccc3)C2)=C(N)N1 (stereo not given) [AZELNIDIPINE] | > 30 | > 30 | > 30 | > 30 | 16 | – | – | > 30
9 | CC(Cc1cccc(C(F)(F)F)c1)NCCOC(=O)c1ccccc1 (stereo not given) [BENFLUOREX] | > 30 | > 30 | 27 | 6.86 | > 30 | – | > 30 | > 30
10 | CCOC(=O)c1ccc(N)cc1 [BENZOCAINE] | – | – | – | – | > 10 | – | – | > 10
11 | CC(C)(Oc1ccc(CCNC(=O)c2ccc(Cl)cc2)cc1)C(=O)O [BEZAFIBRATE] | – | – | – | – | > 10 | – | – | > 10
12 | O=C(O)COCCN1CCN(C(c2ccccc2)c2ccc(Cl)cc2)CC1 (stereo not given) [CETIRIZINE] | – | – | > 10 | – | > 10 | – | > 30 | –
13 | Cc1cn([C@H]2O[C@@H](CO)[C@H](O)[C@H]2F)c(=O)[nH]c1=O [CLEVUDINE] | – | – | – | – | – | > 30 | – | –
14 | C/C=C(/C(=C/C)c1ccc(O)cc1)c1ccc(O)cc1 [DIENESTROL] | > 10 | – | > 30 | > 10 | > 10 | – | – | > 10
15 | CC(=O)[C@H]1CC[C@H]2[C@@H]3C=CC4=CC(=O)CC[C@@]4(C)[C@@H]3CC[C@]12C [DYDROGESTERONE] | – | – | – | – | – | > 30 | – | –
16 | CN[C@]1(c2ccccc2Cl)CCCCC1=O [ESKETAMINE] | – | – | – | – | > 30 | – | – | > 30
17 | CC(O)(P(=O)(O)O)P(=O)(O)O [ETIDRONIC ACID] | – | – | – | – | – | > 30 | – | –
18 | Cc1ccc(S(=O)(=O)NC(=O)NC2CCCCC2)cc1 [GLYCYCLAMIDE] | – | – | – | – | – | > 30 | – | –
19 | COc1ccc([C@@H]2CC(=O)c3c(O)cc(O)cc3O2)cc1O [HESPERETIN] | > 10 | > 10 | > 30 | > 10 | > 10 | – | – | > 10
20 | CC(=O)OCC(=O)[C@@]1(O)CC[C@H]2[C@@H]3CCC4=CC(=O)CC[C@]4(C)[C@H]3[C@@H](O)C[C@@]21C [HYDROCORTISONE ACETATE] | – | – | – | – | – | > 30 | – | –
21 | CNCCc1ccc(OC(=O)C(C)C)c(OC(=O)C(C)C)c1 [IBOPAMINE] | > 30 | > 30 | > 30 | > 30 | > 30 | – | 9.93 | > 30

Row | SMILES | AC50 [1] [µM] | AC50 [2] [µM] | AC50 [3] [µM] | AC50 [4] [µM] | AC50 (Motilin receptor) [µM] | AC50 [5] [µM] | AC50 [6] [µM] | AC50 [7] [µM]
22 | CN(C)CCCN1c2ccccc2CCc2ccccc21 [IMIPRAMINE] | – | – | – | – | > 10 | – | > 30 | 4.3
23 | CC(COc1ccccc1)NC(C)C(O)c1ccc(O)cc1 (stereo not given) [ISOXSUPRINE] | – | – | – | – | – | 11.2 | – | –
24 | CCOC(=O)C1=C(C)NC(C)=C(C(=O)OCC)C1c1ccccc1/C=C/C(=O)OC(C)(C)C [LACIDIPINE] | – | – | – | – | > 30 | – | – | > 30
25 | CCC[C@@H]1C[C@@H](C(=O)N[C@@H]([C@H]2O[C@H](SC)[C@H](O)[C@@H](O)[C@H]2O)[C@@H](C)O)N(C)C1 [LINCOMYCIN] | – | – | – | – | > 10 | – | > 30 | > 10
26 | COC(=O)C1=C(C)NC(C)=C(C(=O)OCCN2CCN(C(c3ccccc3)c3ccccc3)CC2)C1c1cccc([N+](=O)[O-])c1 (stereo not given) [MANIDIPINE 6300] | > 30 | > 30 | > 30 | > 30 | > 30 | – | > 30 | > 30
27 | C=C1c2cccc(O)c2C(=O)C2=C(O)[C@]3(O)C(=O)C(C(N)=O)=C(O)[C@@H](N(C)C)[C@@H]3[C@@H](O)[C@H]12 [METHACYCLINE] | > 10 | > 10 | > 30 | > 10 | > 30 | – | – | > 10
28 | CN(Cc1cnc2nc(N)nc(N)c2n1)c1ccc(C(=O)N[C@@H](CCC(=O)O)C(=O)O)cc1 [METHOTREXATE] | – | – | – | – | > 10 | – | > 30 | > 10
29 | Cc1ccccc1N1C(=O)c2cc(S(N)(=O)=O)c(Cl)cc2NC1C (stereo not given) [METOLAZONE] | – | – | – | – | > 10 | – | – | > 10
30 | O=C(O)c1cccnc1Nc1cccc(C(F)(F)F)c1 [NIFLUMIC ACID] | – | – | – | – | > 10 | – | – | > 10
31 | O=C1c2cccc3c2[C@H](CCC3)CN1[C@@H]1CN2CCC1CC2 [PALONOSETRON] | > 30 | > 30 | 28 | > 30 | > 30 | – | – | > 30
32 | OC[C@H]1O[C@@H](n2cnc3c2NC=NC[C@H]3O)C[C@@H]1O [PENTOSTATIN] | > 30 | > 30 | > 30 | > 30 | > 30 | – | > 30 | > 30
33 | CCC[C@H](N[C@@H](C)C(=O)N1[C@H](C(=O)O)C[C@@H]2CCCC[C@@H]21)C(=O)OCC [PERINDOPRIL] | – | – | – | – | – | > 30 | – | –
34 | O=C1c2ccccc2C(=O)C1c1ccccc1 [PHENINDIONE] | – | – | – | – | > 10 | – | – | > 10
35 | N[C@@H](Cc1ccccc1)C(=O)O [PHENYLALANINE] | – | – | – | – | – | > 30 | – | –
36 | Cc1cccc(C)c1NC(=O)CC12CCCN1CCC2 [PILSICAINIDE] | > 30 | > 30 | > 30 | > 30 | > 30 | – | – | > 30
37 | CC(C)c1cccc(C(C)C)c1O [PROPOFOL] | – | – | – | – | > 30 | – | > 30 | > 30
38 | CN[C@@H](C)[C@@H](O)c1ccccc1 [PSEUDOEPHEDRINE] | – | > 10 | > 10 | – | > 10 | – | – | > 10
39 | CCCN1CC(NS(=O)(=O)N(CC)CC)CC2Cc3c(O)cccc3CC21 (stereo not given) [QUINAGOLIDE] | – | > 30 | > 30 | – | > 30 | – | > 30 | > 30
40 | C[C@]12CCC(=O)C[C@@H]1CC[C@@H]1[C@@H]2CC[C@]2(C)[C@@H](O)CC[C@@H]12 [STANOLONE] | – | – | – | – | > 30 | – | – | > 30
41 | CCOC(=O)c1c(CSc2ccccc2)n(C)c2cc(Br)c(O)c(CN(C)C)c12 [UMIFENOVIR] | > 30 | 18 | > 30 | 6.7 | 3.7 | – | – | 28
